Experimental data published in the NIST ThermoML archive (doi:10.1021/je0496600).

Experiment: mn = molality of the nth substance listed, in mol/kg
Settings: 101.3 kPa, Liquid; for speed of sound: Sing-around technique in a fixed-path interferometer

O=C([O-])CCC(=O)[O-].[Na+].[Na+] [disodium succinate] + O
Settings	mass density, 298.15 K [kg/m3]	mass density, 308.15 K [kg/m3]	mass density, 318.15 K [kg/m3]	speed of sound, 298.15 K [m/s]	speed of sound, 308.15 K [m/s]	speed of sound, 318.15 K [m/s]
m1 = 0.0188	999.052	996.011	992.179	1500.2	1523.2	1539.9
m1 = 0.0239	999.583	996.544	992.703	1501.1	1524.1	1540.6
m1 = 0.0336	1000.61	997.55	993.703	1502.7	1525.6	1542.1
m1 = 0.0373	1001	997.934	994.083	1503.4	1526.2	1542.7
m1 = 0.0452	1001.82	998.747	994.887	1504.9	1527.5	1544
m1 = 0.0489	1002.2	999.13	995.266	1505.4	1528	1544.6
m1 = 0.0546	1002.79	999.711	995.841	1506.3	1528.9	1545.3
m1 = 0.0593	1003.28	1000.19	996.315	1507.1	1529.7	1546.6
m1 = 0.068	1004.18	1001.08	997.197	1509	1531.7	1547.5
m1 = 0.0763	1005.05	1001.94	998.046	1510.5	1532.4	1548.5
m1 = 0.0864	1006.09	1002.96	999.064	1511.7	1533.9	1549.9
m1 = 0.0935	1006.82	1003.69	999.785	1512.8	1535.1	1551.2
m1 = 0.1221	1009.74	1006.56	1002.63	1517.5	1539.5	1555.2
m1 = 0.2589	1023.44	1020.07	1016.03	1539.8	1560.3	1575.1
m1 = 0.3292	1030.32	1026.85	1022.73	1551	1570.8	1585.2
m1 = 0.4019	1037.3	1033.75	1029.56	1562.4	1581.6	1595.8
m1 = 0.4364	1040.57	1036.98	1032.77	1567.8	1586.6	1600.7
m1 = 0.5252	1048.89	1045.2	1040.92	1582	1599.5	1612
m1 = 0.6535	1060.59	1056.74	1052.37	1601.2	1617.8	1629.2
m1 = 0.7422	1068.47	1064.55	1060.13	1615.1	1630.5	1641
m1 = 0.9099	1083.03	1078.94	1074.41	1639.8	1653.3	1662.7
m1 = 1.168	1104.44	1100.13	1095.45	1675.7	1687.5	1694.9
m1 = 1.43	1125.04	1120.37	1115.74	1711.2	1720.9	1726.2
m1 = 1.748	1148.68	1143.92	1138.95	1752.4	1759	1762.5

O=C[O-].[Na+] [sodium methanoate] + O
Settings	mass density, 298.15 K [kg/m3]	mass density, 308.15 K [kg/m3]	mass density, 318.15 K [kg/m3]	speed of sound, 298.15 K [m/s]	speed of sound, 308.15 K [m/s]	speed of sound, 318.15 K [m/s]
m1 = 0.0263	998.164	995.129	991.308	1498.6	1521.7	1538.3
m1 = 0.0331	998.451	995.412	991.587	1499.1	1522.1	1538.8
m1 = 0.0437	998.896	995.851	992.021	1499.7	1522.7	1539.3
m1 = 0.0497	999.147	996.099	992.265	1500.1	1523.1	1539.6
m1 = 0.057	999.452	996.397	992.559	1500.6	1523.5	1540
m1 = 0.0682	999.921	996.863	993.016	1501.2	1524.2	1540.6
m1 = 0.0747	1000.2	997.131	993.282	1501.6	1524.5	1541
m1 = 0.0811	1000.46	997.398	993.545	1502.1	1524.9	1541.3
m1 = 0.0909	1000.88	997.799	993.945	1502.7	1525.5	1541.9
m1 = 0.0975	1001.15	998.074	994.215	1503	1525.9	1542.4
m1 = 0.1428	1003.03	999.916	996.044	1505.9	1528.5	1544.5
m1 = 0.2955	1009.33	1006.11	1002.18	1515.1	1536.9	1552.5
m1 = 0.4697	1016.34	1012.98	1008.95	1525.2	1546.2	1561.2
m1 = 0.6887	1024.99	1021.49	1017.38	1537.7	1557.7	1572.6
m1 = 0.8366	1030.69	1027.11	1022.93	1546	1565.3	1579
m1 = 0.9653	1035.61	1031.93	1027.66	1553.1	1571.8	1584.9
m1 = 1.139	1042.15	1038.38	1034.04	1562.4	1580.4	1593.2
m1 = 1.233	1045.63	1041.81	1037.43	1567.5	1585	1597.3
m1 = 1.496	1055.23	1051.27	1046.79	1581.2	1597.5	1609.2
m1 = 2.188	1079.46	1075.15	1070.43	1615.3	1628.8	1638.3
m1 = 2.783	1099.17	1094.61	1089.57	1642.8	1653.9	1661.4
m1 = 3.458	1120.32	1115.48	1110.11	1671.7	1680.4	1685.7
m1 = 4.201	1142.29	1137.22	1131.78	1701.1	1707.2	1709.9
m1 = 4.966	1163.55	1158.26	1152.83	1729.1	1732.7	1733.4
m1 = 6.561	1204.09	1198.4	1192.37	1779.4	1778.7	1775.7
m1 = 7.737	1230.99	1225.05	1218.87	1811.1	1807.6	1802
m1 = 8.551	1248.27	1242.15	1235.77	1830.5	1825.3	1818.3
m1 = 10.05	1277.62	1271.22	1264.6	1862.1	1854.1	1844.6
